Experimental findings from patent EP0335331A1, “O- (1,2-Di-O-acetyl-glycero-3-phosphoryl)ethanolamine, a process for its preparation and its therapeutic use” (MAGIS FARMACEUTICI S.p.A., priority 1988, dated 1989) are described below.

Data set [1] can be described thus: acute toxicity by the Weil method. The conditions noted are these: in vivo, mouse, read-out: LD₅₀. The text has this: The acute toxicity of the compound of formula (I) was studied on the mouse by the Weil method [Weil C.S. Biometr. 8, 249 (1952)].
The next data set relates to rat. Put plainly: olive oil-induced alteration of lipoprotein state, plasma cholesterol and triglycerides. It is filed as in vivo. To be noted: normally fed rat treated orally with 15 ml/kg of olive oil; greatest effect two hours after the olive oil treatment. On the procedure: The effect of the compound in terms of modifying the lipoprotein state and the plasma cholesterol and triglyceride levels, altered by oral administration of olive oil, was studied in normally fed rat treated orally with 15 ml/kg of olive oil at various concentrations.

`CC(=O)OCC(COP(=O)(O)OCCN)OC(C)=O` (centres unmarked) [compound of formula (I), O-(1,2-di-O-acetylglycero-3-phosphoryl)ethanolamine]: the LD50 in data set [1] is more than 2000 mg/kg. Besides, the “effect on increase in triglycerides and cholesterol, reduction in the α-lipoproteins and increase in the β and pre-β fractions” value with rat is recorded as “well antagonised by the compound, which proved able to return the parameters to normality”.
